From EP1343508B1, “USE OF AN OESTROGEN IN THE MANUFACTURE OF A COMPOSITION CONTAINING OESTROGEN FOR THE TREATMENT OF ATROPHIC VAGINITIS” (Novo Nordisk Femcare AG, priority 2000, dated 2002)
Marks after values point to notes of the source that are not given here.

Tests used:
[1] = tested on: postmenopausal women with atrophic vaginitis; assay: Vaginal symptom composite score (dryness, soreness, irritation), Example 3; format: in vivo; conditions: scale 0-3
Description: Efficacy was measured with composite scores of vaginal symptoms (dryness, soreness, and irritation) and vaginal health (secretions, epithelial integrity, surface thickness, and pH). Vaginal and urethral cytology analyses were also performed, and the vaginal maturation value was determined. Safety assessments included endometrial biopsies. […] All vaginal tablets were identical in appearance. Patients inserted 1 tablet daily for 14 days. Thereafter, patients inserted 1 tablet twice per week (Sunday and Thursday) for the remainder of the trial. Patients were to insert the tablets at the same time each day (preferably at bedtime). Patients were evaluated for efficacy and safety at Week - 4 (screening), Week 0 (baseline), and Weeks 2, 7, and 12. Efficacy assessments included patient ratings of atrophic vaginitis symptoms, investigator ratings of vaginal health, and vaginal and urethral cytology. Patients used intensity ratings of none, mild, moderate, or severe to evaluate atrophic vaginitis symptoms (dryness, soreness, irritation, dyspareunia, and vaginal discharge). Intensity ratings were assigned ascending scores from 0 (none) to 3 (severe) for analysis. A composite score for atrophic vaginitis symptoms was defined as the average of the individual symptom scores for dryness, soreness, and irritation. […] The composite score and the change from baseline for the composite score were examined at each time point. Differences within and between treatment groups were analyzed using an analysis of variance (ANOVA). […] Efficacy was measured with composite scores of vaginal symptoms (dryness, soreness, and irritation) and vaginal health (secretions, epithelial integrity, surface thickness, and pH). Vaginal and urethral cytology analyses were also performed, and the vaginal maturation value was determined. Safety assessments included endometrial biopsies. […] Patients were evaluated for efficacy and safety at Week - 4 (screening), Week 0 (baseline), and Weeks 2, 7, and 12. […] Differences within and between treatment groups were analyzed using an analysis of variance (ANOVA).

[2] = tested on: postmenopausal women with atrophic vaginitis; assay: Patients with vaginal pH below 5.5, Example 3; format: in vivo
Description: Efficacy was measured with composite scores of vaginal symptoms (dryness, soreness, and irritation) and vaginal health (secretions, epithelial integrity, surface thickness, and pH). Vaginal and urethral cytology analyses were also performed, and the vaginal maturation value was determined. Safety assessments included endometrial biopsies. […] All vaginal tablets were identical in appearance. Patients inserted 1 tablet daily for 14 days. Thereafter, patients inserted 1 tablet twice per week (Sunday and Thursday) for the remainder of the trial. Patients were to insert the tablets at the same time each day (preferably at bedtime). Patients were evaluated for efficacy and safety at Week - 4 (screening), Week 0 (baseline), and Weeks 2, 7, and 12. Investigators used a severity scale of none, mild, moderate, or severe to assess vaginal health characteristics (secretions, epithelial integrity, surface thickness, color, and pH). Severity categories were assigned ascending scores from 0 (none) to 3 (severe) for analysis. To avoid multiple endpoint issues, composite scores were defined. A composite score for vaginal health was defined as the average of the individual vaginal health characteristic scores. The composite score and the change from baseline for the composite score were examined at each time point. Differences within and between treatment groups were analyzed using an analysis of variance (ANOVA). […] Efficacy was measured with composite scores of vaginal symptoms (dryness, soreness, and irritation) and vaginal health (secretions, epithelial integrity, surface thickness, and pH). Vaginal and urethral cytology analyses were also performed, and the vaginal maturation value was determined. Safety assessments included endometrial biopsies. […] All vaginal tablets were identical in appearance. Patients inserted 1 tablet daily for 14 days. Thereafter, patients inserted 1 tablet twice per week (Sunday and Thursday) for the remainder of the trial. Patients were to insert the tablets at the same time each day (preferably at bedtime). Patients were evaluated for efficacy and safety at Week - 4 (screening), Week 0 (baseline), and Weeks 2, 7, and 12. Investigators used a severity scale of none, mild, moderate, or severe to assess vaginal health characteristics (secretions, epithelial integrity, surface thickness, color, and pH). Severity categories were assigned ascending scores from 0 (none) to 3 (severe) for analysis. To avoid multiple endpoint issues, composite scores were defined. A composite score for vaginal health was defined as the average of the individual vaginal health characteristic scores. The composite score and the change from baseline for the composite score were examined at each time point. Differences within and between treatment groups were analyzed using an analysis of variance (ANOVA).

[3] = 24-hour serum estradiol profile after vaginal tablet insertion (radioimmunoassay), Example 2; format: in vivo, postmenopausal women; conditions: for patients with areas under the curve below 600 pg hr/mL at both time points / percentage of patients with areas under the curve below 600 pg hr/mL at both time points: weeks 0 and 12; for Maximal concentration / Time to maximal concentration: mean ± SD
Source text: After the screening visit, patients received no study treatment during the 4-week run-in period prior to the baseline visit. […] The vaginal tablets were identical in appearance. Patients inserted 1 tablet intravaginally, once daily for the initial 2 weeks of the study and then twice per week (Sunday and Thursday) for the remaining 10 weeks. Patients were instructed to use their medication at a consistent time each day, preferably in the morning.
Upon presentation to the clinic for each visit, a vaginal cytology specimen was obtained. Patients then inserted the tablets. […] The blood samples obtained at 30 minutes before insertion, and at 6, 12, and 24 hours after insertion were also used to determine the FSH concentration via immunoradiometric assay.
Data for area under the curve and maximal concentration were converted to a logarithmic scale, and changes from first dose (at the baseline visit) in the logarithmic values were estimated using 95% confidence intervals derived from paired t-tests. […] Differences within treatment groups in FSH concentration were determined using the Wilcoxon signed rank test based on changes from baseline in mean concentrations at weeks 2 and 12. Mean concentrations were defined as the average concentrations obtained at 30 minutes before tablet insertion and 6, 12, and 24 hours after insertion.

[4] = 10 µg E2 vaginal tablet, Week 0
[5] = 10 µg E2 vaginal tablet, Week 12
[6] = 25 µg E2 vaginal tablet, Week 0
[7] = 25 µg E2 vaginal tablet, Week 12

C[C@]12CC[C@@H]3c4ccc(O)cc4CC[C@H]3[C@@H]1CC[C@@H]2O [E2, 17β-estradiol]
vaginal symptom composite score ([1]; 10 µg E2, Week 12): ~0.6
vaginal symptom composite score ([1]; 25 µg E2, Week 12): approximately 0.5
vaginal symptom composite score ([1]; each treatment group (25 or 10 µg E2), Week 0 (baseline)): approximately 1.9
Patients With Vaginal pH Values Below 5.5, (%) ([2]; 10 µg E2, Week 0): (30.3) %
Patients With Vaginal pH Values Below 5.5, n/N ([2]; 10 µg E2, Week 0): 27/89
Patients With Vaginal pH Values Below 5.5, (%) ([2]; 10 µg E2, Week 2): (79.8)^b %
Patients With Vaginal pH Values Below 5.5, n/N ([2]; 10 µg E2, Week 2): 67/84
Patients With Vaginal pH Values Below 5.5, (%) ([2]; 10 µg E2, Week 7): (71.3)^c %
Patients With Vaginal pH Values Below 5.5, n/N ([2]; 10 µg E2, Week 7): 57/80
Patients With Vaginal pH Values Below 5.5, (%) ([2]; 10 µg E2, Week 12): (76.1)^b %
Patients With Vaginal pH Values Below 5.5, n/N ([2]; 10 µg E2, Week 12): 54/71
Patients With Vaginal pH Values Below 5.5, (%) ([2]; 25 µg E2, Week 0): (34.4) %
Patients With Vaginal pH Values Below 5.5, n/N ([2]; 25 µg E2, Week 0): 31/90
Patients With Vaginal pH Values Below 5.5, (%) ([2]; 25 µg E2, Week 2): (73.6)^a %
Patients With Vaginal pH Values Below 5.5, n/N ([2]; 25 µg E2, Week 2): 64/87
Patients With Vaginal pH Values Below 5.5, n/N ([2]; 25 µg E2, Week 7): 71/83
Patients With Vaginal pH Values Below 5.5, (%) ([2]; 25 µg E2, Week 12): (79.7)^b %
Patients With Vaginal pH Values Below 5.5, n/N ([2]; 25 µg E2, Week 12): 63/79
percentage of patients with vaginal pH values below 5.5 ([2]; each treatment group (25 or 10 µg E2), Week 0): approximately 35%
patients with areas under the curve below 600 pg hr/mL at both time points ([3]; 10 µg E2): 22 patients
percentage of patients with areas under the curve below 600 pg hr/mL at both time points ([3]; 10 µg E2): 96%
Serum concentration over 24 hours [3, 4]: 15 pg/mL
Maximal concentration [3, 4]: 35 ± 17 pg/mL
Area under the curve ([3]; 10 µg E2 vaginal tablet, Week 0, serum E2, mean ± SD): 0.349 ± 0.107 ng·h/mL
Serum concentration over 24 hours [3, 5]: 11 pg/mL
Maximal concentration [3, 5]: 22 ± 17 pg/mL
Time to maximal concentration [3, 5]: 10 ± 8 h
Area under the curve ([3]; 10 µg E2 vaginal tablet, Week 12, serum E2, mean ± SD): 0.264 ± 0.12 ng·h/mL
patients with areas under the curve below 600 pg hr/mL at both time points ([3]; 25 µg E2): 14 patients
percentage of patients with areas under the curve below 600 pg hr/mL at both time points ([3]; 25 µg E2): 74%
Serum concentration over 24 hours [3, 6]: 22 pg/mL
Time to maximal concentration [3, 6]: 15 ± 9 h
Area under the curve ([3]; 25 µg E2 vaginal tablet, Week 0, repeated Table 2): 538000 ± 265000 ng·h/mL
Area under the curve ([3]; 25 µg E2 vaginal tablet, Week 0, serum E2, mean ± SD): 0.538 ± 0.265 ng·h/mL
Serum concentration over 24 hours [3, 7]: 23 pg/mL
Time to maximal concentration [3, 7]: 13 ± 6 h
Area under the curve ([3]; 25 µg E2 vaginal tablet, Week 12, serum E2, mean ± SD): 0.563 ± 0.341 ng·h/mL
